The values below come from patent US20040044006A1, “Methods of use of quinolone compounds against pneumococcal and haemophilus bacteria” (priority 1999, published 2004).

SMILES strings stand for the structures. In brackets after ≈: the same amount, converted by molar mass. Like-named read-outs stand apart in the source and are kept apart here.

Assay [1] deals with penicillin susceptible and resistant pneumococcal strains (2 quinolone resistant). The assay can be described thus: Time-kill testing of 12 pneumococcal strains. The note with it: 12 penicillin susceptible and resistant pneumococcal strains; 24 h; bactericidal = ≧3 log10 cfu/ml (99.9%) reduction. The format is cell-based, Streptococcus pneumoniae. On the procedure:
For time-kill studies, glass tubes containing 5 ml cation-adjusted Mueller-Hinton broth (Difco)+5% lysed horse blood with doubling antibiotic concentrations were inoculated with 5×10^5 to 5×10^6 cfu/ml and incubated at 35° C. in a shaking water bath. […] Growth controls with inoculum but no antibiotic were included with each experiment (Pankuch, et al., Antimicrob. Agents Chemother. 38:2065-2072, 1994; Pankuch, et al., Antimicrob. Agents Chemother. 40:1653-1656, 1996).
Lysed horse blood was prepared as described previously. The bacterial inoculum was prepared by diluting a 16 h broth (medium as above) culture in the same medium. Dilutions required to obtain the correct inoculum (5×10^5-5×10^6 cfu/ml) were determined by prior viability studies using each strain (Pankuch, et al., Antimicrob. Agents Chemother. 38:2065-2072, 1994; Pankuch, et al., Antimicrob. Agents Chemother. 40: 1653-1656, 1996).
To inoculate each tube of serially diluted antibiotic, 50 μl of diluted inoculum was delivered by pipette beneath the surface of the broth. Tubes were then vortexed and plated for viability counts within 10 min (approximately 0.2 h). The original inoculum was determined by using the untreated growth control. Only tubes containing an initial inoculum within the range of 5×10^5 to 5×10^6 cfu/ml were acceptable (Pankuch, et al., Antimicrob. Agents Chemother. 38:2065-2072, 1994; Pankuch, et al., Antimicrob. Agents Chemother. 40:1653-1656, 1996).
Viability counts of antibiotic-containing suspensions were performed by plating ten-fold dilutions of 0.1 ml aliquots from each tube in sterile Mueller-t-Hinton broth onto trypticase soy agar 5% sheep blood agar plates (BBL). Recovery plates were incubated for up to 72 h. Colony Counts were performed on plates yielding 30-300 colonies. The lower limit of sensitivity of colony counts was 300 cfu/ml (Pankuch, et al., Antimicrob. Agents Chemother. 38:2065-2072, 1994; Pankuch, et al., Antimicrob. Agents Chemother. 40:1653-1656, 1996).
Time-kill assays were analysed by determining the number of strains which yielded a log10 cfu/ml of −1, −2 and −3 at 0, 3, 6, 12 and 24 h, compared to counts at time 0 h. Antimicrobials were considered bactericidal at the lowest concentration that reduced the original inoculum by ≧3 log10 cfu/ml (99.9%) at each of the time periods, and bacteriostatic if the inoculum was reduced by 0-3 log10 cfu/ml. […] The problem of bacterial carryover was addressed as described previously. For macrolide time-kill testing, only strains with MICs≦4.0 μg/ml were tested (Pankuch, et al., Antimicrob. Agents Chemother. 38:2065-9072, 1994; Pankuch, et al., Antimicrob. Agents Chemother. 40:1653-1656, 1996).

Assay [2] concerns quinolone susceptible pneumococci (ciprofloxacin MICs ≦4.0 μg/ml). The assay can be described thus: Agar dilution MICs of 207 quinolone susceptible pneumococcal strains. The format is cell-based, Streptococcus pneumoniae. The settings on record: Streptococcus pneumoniae, agar dilution; for MIC90: read-out: MIC90; for MIC: read-out: MIC range. The procedure:
All susceptible, and some intermediate and resistant strains, were recent U.S. isolates. The remainder of intermediate and resistant strains were isolated in South Africa, Spain, France, Central and Eastern Europe, and Korea. […] Additionally these strains were tested for mutations in parC, gyrA, parE, and gyrB (Pan, et al., Antimicrob. Agents Chemother. 40:2321-2326, 1996) and for efflux mechanism (Brenwald, et al., Antimicrob. Agents Chemother. 42:2032-2035, 1998). For time-kill studies, 4 penicillin susceptible, 4 intermediate and 4 resistant strains (2 quinolone resistant) were tested, while for PAE studies 5 quinolone susceptible and 1 resistant strains were studied.
(§1) Agar dilution methodology was performed on 234 strains as described previously (M. R. Jacobs, Clin. Infect. Dis. 15:119-127, 1992; Jacobs, et al., Rev. Med. Microbiol. 6:77-93, 1995), using Mueller-Hinton agar (BBL Microbiology Systems, Cockeysville, Md.) supplemented with 5% sheep blood. Broth MICs for 12 strains tested by time-kill and 6 tested by PAE were performed according to NCCLS recommendations (Methods for Dilution Antimicrobial Susceptibility Tests for Bacteria that Grow Aerobically, 3rd Edition, NCCLS, Villanova, Pa.) using cation-adjusted Mueller-Hinton broth with 5% lysed defibrinated horse blood. Standard quality control strains, including Streptococcus pneumoniae ATCC 49619, were included in each run of agar and broth dilution MICs.
Background: In agar dilution the substance is mixed into plates at graded concentrations.

In assay [3] the test system is pneumococcal strains. The assay can be described thus: Microbroth dilution MICs of strains tested by time-kill and PAE. The settings on record: Streptococcus pneumoniae, read-out: Microdilution MIC. The format is cell-based. On the procedure: as §1
For orientation: In broth dilution the organism is exposed to a series of concentrations in liquid medium.

In assay [4] the test system is pneumococci (5 quinolone susceptible and 1 resistant strains). Description: Post-antibiotic effect (PAE) testing. The format is cell-based, Streptococcus pneumoniae. The note with it: 10×MIC; range over strains. On the procedure:
The post-antibiotic effect (PAE) (Craig, et al., V. Lorian (ed.) Antibiotics in Laboratory Medicine, Williams and Wilkins, Baltimore, pages 296-399, 1996) was determined by the viable plate count method, using Mueller-Hinton broth (MHB) supplemented with 5% lysed horse blood when testing pneumococci. […] Additionally, the one quinolone resistant strain was exposed at quinolone concentrations 5×MIC. Tubes containing 5 ml broth with antibiotic were inoculated with approximately 5×10^6 cfu/ml. Growth controls with inoculum but no antibiotic were included with each experiment. Tubes were placed in a shaking water bath at 35° C. for 1 h. At the end of the exposure period, cultures were diluted 1:1000 to remove antibiotic.
Viability counts were determined before exposure and immediately after dilution (0 h), and then every 2 h until tube turbidity reached a #1 McFarland standard. Inocula were prepared by suspending growth from an overnight blood agar plate in broth. The broth was incubated at 35° C. for 2-4 h in a shaking water bath until turbidity matched a #1 McFarland standard, and checked for viability by plate counts (Spangler, et al., Antimicrob. Agents Chemother. 41:2173-9176, 1997; Spangler, et al., Antimicrob. Agents Chemother. 42:1253-1255, 1998).
The PAE was defined as PAE=T-C; T=time required for viability counts of an antibiotic-exposed culture to increase by 1 log10 above counts immediately after dilution; C=corresponding time for growth control. For each experiment, viability counts (log10 cfu/ml) were plotted against time, and results expressed as the mean of two separate assays±S D (Craig, et al., V. Lorian (ed), Antibiotics in Laboratory Medicine, Williams and Wilkins, Baltimore, pages 296-329, 1996).

Where [5] appears, read: strain 1 (S) penicillin susceptible.
Where [6] appears, read: strain 2 (S) penicillin susceptible.
Setting [7] is: strain 3 (S) penicillin susceptible, quinolone-resistant.
[8] abbreviates: strain 4 (S) penicillin susceptible, quinolone-resistant.
Where [9] appears, read: strain 5 (I) penicillin intermediate.
Setting [10] is: strain 8 (I) penicillin intermediate.
The mark [11] stands for this setting: strain 9 (R) penicillin resistant.
[12] abbreviates: strain 11 (R) penicillin resistant.
[13] abbreviates: strain 12 (R) penicillin resistant.

Consider `CC1(C)S[C@@H]2[C@H](NC(=O)[C@H](N)c3ccc(O)cc3)C(=O)N2[C@H]1C(=O)O` [Amoxicillin, amoxicillin], for which the “concentration at which bactericidal after 24 h” value in assay [1] was determined as 2 ×MIC. Further, the MIC90 (commonly an inhibitory concentration at the 90% level, which refers to growth in some studies and to a panel of isolates in others) in assay [2] (Penicillin I strains) was 1 µg/mL (≈ 2.74 µM); in assay [2] (Penicillin R strains), 4 µg/mL (≈ 10.9 µM); in assay [2] (Penicillin S strains) it was 0.06 µg/mL (≈ 0.164 µM). For the same compound, the MIC – broadly, the least concentration at which growth counts as inhibited – in assay [2] (Penicillin I strains) is 0.016 to 4 µg/mL (≈ 0.0438 to 10.9 µM); in assay [2] (Penicillin R strains), 0.5 to 8 µg/mL (≈ 1.37 to 21.9 µM); in assay [2] (Penicillin S strains), 0.008 to 0.25 µg/mL (≈ 0.0219 to 0.684 µM); in assay [3] (setting [5]), 0.016 µg/mL (≈ 0.0438 µM); in assay [3] (setting [6]) it was 0.016 µg/mL (≈ 0.0438 µM); in assay [3] (setting [7]) it was 0.008 µg/mL (≈ 0.0219 µM). Besides, the MIC was 0.008 µg/mL (≈ 0.0219 µM) in assay [3] (setting [8]); 0.03 µg/mL (≈ 0.0821 µM) in assay [3] (setting [9]); 0.06 µg/mL (≈ 0.164 µM) in assay [3] (setting [10]); 1 µg/mL (≈ 2.74 µM) in assay [3] (setting [11]); 1 µg/mL (≈ 2.74 µM) in assay [3] (strain 10 (I)); 2 µg/mL (≈ 5.47 µM) in assay [3] (setting [12]). Further, the MIC in assay [3] (setting [13]) came to 2 µg/mL (≈ 5.47 µM). Moreover, the MIC50 – broadly, an inhibitory concentration at the 50% level, which refers to growth in some studies and to a panel of isolates in others – came to 2 µg/mL (≈ 5.47 µM) in assay [2] (Penicillin R strains) and 0.016 µg/mL (≈ 0.0438 µM) in assay [2] (Penicillin S strains). Moreover, the “PAE for non-quinolone compounds” value in assay [4] was 0.3 to 5.8 h.
With `CO/N=C(\C(=O)N[C@@H]1C(=O)N2C(C(=O)O)=C(COC(N)=O)CS[C@H]12)c1ccco1` [Cefuroxime, cefuroxime], the “concentration at which bactericidal after 24 h” value in assay [1] is recorded as 4 ×MIC. The figures for the MIC50 in assay [2] (Penicillin I strains), in assay [2] (Penicillin R strains) and in assay [2] (Penicillin S strains) were 0.5 µg/mL (≈ 1.18 µM), 8 µg/mL (≈ 18.9 µM) and 0.03 µg/mL (≈ 0.0707 µM), respectively. The MIC90 in assay [2] (Penicillin I strains) was 2 µg/mL (≈ 4.71 µM); in assay [2] (Penicillin R strains) it was 16 µg/mL (≈ 37.7 µM); in assay [2] (Penicillin S strains) it was 0.25 µg/mL (≈ 0.589 µM). The MIC in assay [2] (Penicillin I strains) was 0.125 to 8 µg/mL (≈ 0.295 to 18.9 µM); in assay [2] (Penicillin R strains) it was 0.5 to 32 µg/mL (≈ 1.18 to 75.4 µM); in assay [2] (Penicillin S strains), 0.008 to 2 µg/mL (≈ 0.0189 to 4.71 µM); in assay [3] (setting [5]), 0.5 µg/mL (≈ 1.18 µM); in assay [3] (setting [6]), 0.25 µg/mL (≈ 0.589 µM); in assay [3] (setting [7]) it was 0.016 µg/mL (≈ 0.0377 µM). The MIC in assay [3] (setting [8]) came to 0.016 µg/mL (≈ 0.0377 µM); in assay [3] (setting [9]), 0.5 µg/mL (≈ 1.18 µM); in assay [3] (strain 6 (I) penicillin intermediate) it was 0.5 µg/mL (≈ 1.18 µM); in assay [3] (strain 7 (I) penicillin intermediate) it was 0.5 µg/mL (≈ 1.18 µM); in assay [3] (setting [10]) it was 0.25 µg/mL (≈ 0.589 µM); in assay [3] (setting [11]), 2 µg/mL (≈ 4.71 µM). For the same compound, the results for the minimum inhibitory concentration (MIC) in assay [3] (strain 10 (I)), in assay [3] (setting [12]) and in assay [3] (setting [13]) were 0.5 µg/mL (≈ 1.18 µM), 4 µg/mL (≈ 9.43 µM) and 2 µg/mL (≈ 4.71 µM), respectively. The “PAE for non-quinolone compounds” value in assay [4] is 0.8 to 2.9 h.
